Experimental data reported in patent US20250019388A1, “STAT3 DEGRADERS AND USES THEREOF” (priority 2021, published 2025).

Key:
STAT3 [1] = target: T1, STAT3 (Homo sapiens, UniProt P40763); test: STAT3 degradation in human ALCL cell lines SU-DHL-1 and SUP-M2; assay type: cell-based; settings: SU-DHL-1 and SUP-M2 cell lines
ALCL cell lines = test: Cellular phenotypic assays (GI50) in ALCL cell lines; assay type: cell-based; settings: Homo sapiens; several ALCL cell lines
caspase 3/7 = test: Caspase 3/7 activity in ALCL lines; assay type: cell-based, human; settings: at similar concentrations
SU-DHL-1 cell line = test: Washout experiments in the SU-DHL-1 cell line; assay type: cell-based, human
SU-DHL-1 xenografts = test: Antitumor activity in SU-DHL-1 cell-line xenograft model; assay type: in vivo, NOD SCID mice
Protocol: (§1) The antitumor efficacy of Compound A ammonium hydrogen salt was evaluated in immunocompromised mice implanted with human ALCL cell lines SU-DHL-1 and SUP-M2. Protocols for testing STAT3 degraders in human cell line xenograft models can be found, for example, in WO 2020/206424, incorporated herein by reference.
(§2) The antitumor activity of Compound A ammonium hydrogen salt was evaluated in a human SU-DHL-1 cell-line xenograft model established in NOD SCID female mice. Tumor bearing mice (n=5/group) were administered either 0 (vehicle; PBS), 5, 10, 15, or 45 mg/kg Compound A once weekly (QW; Days 0, 7, and 14) or 0 (vehicle; PBS), 10, or 30 mg/kg Compound A once every two weeks (Q2W; Days 0 and 14). Animals administered Compound A QW were monitored until Day 25 post first dose and those administered Compound A Q2W were monitored until Day 71 post first dose.

[2] = Body weight in SU-DHL-1 xenograft study; assay type: in vivo, NOD SCID mice; settings: IV route, SU-DHL-1 study
Protocol: as §2

SUP-M2 xenografts = test: Antitumor activity in SUP-M2 cell-line xenograft model; assay type: in vivo, NOD SCID mice; settings: for tumor regression: 2 day on/5 days off
Protocol: as §1
(§3) The antitumor activity of Compound A ammonium hydrogen salt was evaluated in a human SUP-M2 cell-line xenograft model established in NOD SCID female mice. Tumor bearing mice (n=5/group) were administered either 0 (vehicle; PBS), 10, 20, or 30 mg/kg Compound A QW (Days 0, 7, and 14), 10 or 20 mg/kg Compound A on a 2 days on/5 days off schedule (Days 0, 1, 7, 8, 14, and 15), or 0 (vehicle; PBS), 20, or 40 mg/kg Compound A Q2W (Days 0 and 14). Animals administered Compound A QW or 2 on/5 off were monitored until Day 25 post first dose, and those administered Compound A Q2W were monitored until Day 52 post first dose.

[3] = Body weight in SUP-M2 xenograft study; assay type: in vivo, NOD SCID mice; settings: IV route
Protocol: as §3

STAT3 [4] = test: STAT3 degradation potency in hepatocytes; assay type: cell-based; settings: across human, rat, and dog
STAT3 [5] = target: T2, STAT3 (Rattus norvegicus, UniProt P52631); test: PK/PD study in rats, STAT3 degradation in tissues; assay type: in vivo; settings: IV administration
T2 construct: from tissue
T2 sequence (P52631 whole entry): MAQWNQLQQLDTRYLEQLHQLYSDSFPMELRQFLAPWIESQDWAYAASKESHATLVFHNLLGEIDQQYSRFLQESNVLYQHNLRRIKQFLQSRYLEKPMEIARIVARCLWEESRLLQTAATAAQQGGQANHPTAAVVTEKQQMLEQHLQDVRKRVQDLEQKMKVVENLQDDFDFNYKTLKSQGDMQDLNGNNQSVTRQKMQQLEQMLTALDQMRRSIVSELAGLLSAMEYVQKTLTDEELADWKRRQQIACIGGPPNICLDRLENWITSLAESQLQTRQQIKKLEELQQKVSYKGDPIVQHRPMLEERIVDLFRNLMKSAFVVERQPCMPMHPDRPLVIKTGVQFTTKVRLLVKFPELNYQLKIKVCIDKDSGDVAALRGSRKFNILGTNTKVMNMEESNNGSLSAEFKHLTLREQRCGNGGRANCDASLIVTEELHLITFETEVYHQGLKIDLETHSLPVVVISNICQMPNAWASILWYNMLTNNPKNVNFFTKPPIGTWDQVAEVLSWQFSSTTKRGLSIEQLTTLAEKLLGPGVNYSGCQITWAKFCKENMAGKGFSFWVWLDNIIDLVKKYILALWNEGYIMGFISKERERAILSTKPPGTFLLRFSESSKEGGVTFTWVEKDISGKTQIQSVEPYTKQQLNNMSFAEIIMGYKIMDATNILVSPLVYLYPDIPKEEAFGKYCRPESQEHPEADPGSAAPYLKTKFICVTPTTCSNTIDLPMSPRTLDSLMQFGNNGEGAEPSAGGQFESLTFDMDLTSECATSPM

[6] = tested on: other STAT family members or other cellular proteins; test: Proteome wide assessment in PBMC; assay type: cell-based
Aqueous solubility = assay type: physicochemical
Protocol: Compound A injection was manufactured as a frozen concentrated solution containing 10 mg/mL of free acid intended to be diluted with IV infusion vehicle. It has aqueous solubility greater than 10 mg/mL at pH 4.5 to 9.0 but less than 10 mg/mL at pH less than or equal to 3.

[7] = Phase 1 study, safety and tolerability; assay type: in vivo, human; settings: patients, DL1
Protocol: Rationale: Targeted protein degraders represent a new therapeutic class of compounds that utilize the ubiquitin proteasome system to target the specific degradation of proteins. Compound A is a protein degrader that targets signal transducers and activators of transcription (STAT)3, a transcription factor that plays an important role in hematological malignancies such as lymphomas and in solid tumors. Compound A is administered via intravenous infusion (IV) at the dose levels defined in the protocol on Days 1, 8, 15, and 22 of each 28-day cycle.
Patients who provide informed consent and meet the eligibility criteria for the study will be enrolled and treated with Compound A IV on Days 1, 8, 15, and 22 of a 28-day cycle. Patients will remain on study treatment until disease progression, unacceptable toxicity, withdrawal of consent, any study-specific discontinuation criteria are met, or the Investigator determines that it is in the best interest of the patient to discontinue study treatment.
Phase 1a: This part aims to characterize the safety and tolerability of IV weekly doses of Compound A in sequential cohorts. […]

STAT3 [8] = target: T1, STAT3; test: STAT3 degradation in tumor, SU-DHL-1 tumor xenograft murine model; assay type: in vivo, mice; parameters: from tissue; host or cells: SU-DHL-1 xenograft tumour in immunocompromised mice; settings: 10 mg/kg QW; observed for 48 hrs
STAT3 [9] = target: T1, STAT3; test: Phase 1 study, STAT3 degradation in blood (PBMCs); assay type: in vivo; parameters: Observed STAT3 degradation of 50-80% in PBMCs at Dose Level 1; from tissue; host or cells: blood / PBMCs of patients dosed IV with Compound A; settings: patients
Description: Rationale: Targeted protein degraders represent a new therapeutic class of compounds that utilize the ubiquitin proteasome system to target the specific degradation of proteins.

T1 sequence (P40763 whole entry): as the sequence (P52631 whole entry) above, with D311E, D760E counted along it

SMILES: CC(=O)N1CC[C@H]2CC[C@@H](C(=O)N[C@@H](CCC(N)=O)COc3cccc(CCCC(=O)N[C@H](C(=O)N4C[C@H](O)C[C@H]4C(=O)N[C@@H](C)c4ccc(-c5scnc5C)cc4)C(C)(C)C)c3Cl)N2C(=O)[C@@H](NC(=O)c2cc3cc(C(=O)P(=O)(O)O)ccc3[nH]2)C1 [Compound A, (2-(((5S,8S,10aR)-3-acetyl-8-(((S)-5-amino-1-(2-chloro-3-(4-(((S)-1-((2S,4R)-4-hydroxy-2-(((S)-1-(4-(4-methylthiazol-5-yl)phenyl)ethyl)carbamoyl)pyrrolidin-1-yl)-3,3-dimethyl-1-oxobutan-2-yl)amino)-4-oxobutyl)phenoxy)-5-oxopentan-2-yl)carbamoyl)-6-oxodecahydropyrrolo[1,2-a][1,5]diazocin-5-yl)carbamoyl)-1H-indole-5-carbonyl)phosphonic acid]
- STAT3 degradation (concentration) (STAT3 [1]): ≤ 11.8 ± 2.3 nM
- GI50 (ALCL cell lines): 8.1 to 57.4 nM
- caspase 3/7 activity, a marker of apoptosis (caspase 3/7): induced caspase 3/7 activity
- duration of sustained STAT3 degradation after which irreversible growth inhibition occurred (SU-DHL-1 cell line): approximately 48 hr
- tumor growth inhibition (TGI) (SU-DHL-1 xenografts; 5 mg/kg QW IV): 79.9%
- TGI (SU-DHL-1 xenografts; 10 mg/kg Q2W IV): 89.8%
- tumor regression (SU-DHL-1 xenografts; 10 mg/kg QW IV): complete regression
- tumor regression (SU-DHL-1 xenografts; 15 mg/kg QW IV): complete regressions
- TGI (SU-DHL-1 xenografts; 30 mg/kg Q2W IV): 99.8%
- tumor regression (SU-DHL-1 xenografts; 30 mg/kg Q2W IV, all animals): complete tumor regressions
- tumor regression (SU-DHL-1 xenografts; 45 mg/kg QW IV): complete regressions
- body weight change [2]: slight to moderate body weight increases
- TGI (SUP-M2 xenografts; 10 mg/kg QW IV): 83.8%
- tumor regression (SUP-M2 xenografts; 10 mg/kg): complete tumor regression in all animals
- animals with complete tumor regression (SUP-M2 xenografts; 20 mg/kg Q2W): 4 of 5
- animals with complete tumor regression (SUP-M2 xenografts; 20 mg/kg QW IV): 4 of 5
- tumor regression (SUP-M2 xenografts; 20 mg/kg): complete tumor regression in all animals
- animals with complete tumor regression (SUP-M2 xenografts; 30 mg/kg QW IV): 5 of 5
- animals with complete tumor regression (SUP-M2 xenografts; 40 mg/kg Q2W): 5 of 5
- body weight change [3]: little to slight body weight increases
- degradation potency of STAT3 in hepatocytes (STAT3 [4]): comparable degradation potency
- degradation of STAT3 protein in tissues (STAT3 [5]): significant degradation of STAT3 protein in multiple tissues
- selectivity of degradation [6]: does not degrade other STAT family members or other cellular proteins
- solubility (Aqueous solubility; aqueous buffer, pH 4.5 to 9.0): > 10000 µg/mL
- solubility (Aqueous solubility; pH 3, aqueous buffer, pH less than or equal to 3): < 10000 µg/mL
- safety and tolerability (DLTs, SAEs) [7]: safe and well-tolerated with no DLTs or SAEs
- STAT3 degradation in tumor (STAT3 [8]): greater than 90%
- time of maximal STAT3 degradation post infusion (STAT3 [9]; DL1, Cycle 1 weeks 1 & 2): 24 to 96 h
- STAT3 degradation in PBMCs (STAT3 [9]; Dose Level 1): 50-80%
- duration of target degradation (STAT3 [9]; first dose level): At least 72 h
- maximum STAT3 knockdown in blood (STAT3 [9]; first dose level): up to 86%
- mean maximum STAT3 degradation in blood (STAT3 [9]; first dose level (DL1, 0.05 mg/kg IV), following first 2 doses of Cycle 1): 66%
